Measurements from US20240085425A1, “BIOMARKER AND APPLICATION THEREOF” (ADLAI NORTYE BIOPHARMA CO., LTD., priority 2022, published 2024).

How the values were obtained:
Format in all cases: cell-based
[1] = test system: non-phosphorylated β-catenin; experiment: Western blot of non-phosphorylated β-catenin content in HepG2 cells; details: overnight, read-out: Non-phosphorylated β-catenin content inhibition IC50
Source text: (§1) The Wnt signaling pathway is a key pathway for abnormal tumor growth. In colon cancer, liver cancer, pancreatic cancer and other cancers, a large number of patients have abnormal activation of the Wnt signaling pathway. The Wnt signaling pathway depends on the fine balance of β-catenin protein level. When Wnt signaling is not activated, β-catenin is phosphorylated by CK1 and APC/Axin/GSK-3β complexes, and the β-catenin protein is kept at a low level through ubiquitin-dependent proteasome degradation. When the Wnt signaling pathway is activated, β-catenin maintains a stable state of non-phosphorylation, and non-phosphorylated β-catenin can be transported into the nucleus through Rac1 and other factors, and plays a transcriptional regulatory role by binding to LEF/TCF transcription factors in the nucleus, activates downstream target genes such as C-myc and Cyclin D1, and promotes cell proliferation. Therefore, abnormal activation of the Wnt signaling pathway in tumor cells will lead to abnormal proliferation of tumors. […]
(§2) Add 500 μL of the compound with the highest concentration shown in FIG. 1 to each well of the 6-well cell culture plate, and make a 10-fold gradient dilution of the compound concentration. […] Load the protein sample directly to the SDS-PAGE gel for electrophoresis separation, transfer the protein on the SDS-PAGE gel to the PVDF membrane; after the transfer was completed, the protein was blocked by Western blocking solution, then Rabbit anti-β-catenin non-phospho S37/After T41 (ab278503) was added and the protein was incubated at room temperature for one hour and washed, the content of non-phosphorylated β-catenin was detected by incubation with Goat Anti-Rabbit IgG H&L (HRP) (ab6721). […]

[2] = test system: SW620; experiment: Tumor cell proliferation inhibition (Promega cell viability, 72 h); details: Homo sapiens, SW-620, SW620 cells, read-out: Anti-proliferation IC50
Description: (§3) The cell lines used in the experiment are various tumor cells, including DU4475, Colo205, HepG2, PLC/PRF/5, BT-20, LS174T, NCI-H929, HCT116, SW620, SK-CO-1, SW480, DLD1, HT-29, SW900, SW1417, HuH7, H2009, PANC-1, SW48, Duadi, H358, HCT15, 22Rv1, Hela, RKO, Raji, Jurkat, NCI-H716, MDA-MB-231, NCI-H157 and THP1, and the inhibitory effect of the compound of the present disclosure on the proliferation of these tumor cells is determined, in order to screen out sensitive cell types of the compound of the present disclosure.
(§4) DU4475, Colo205, HepG2, PLC/PRF/5, BT-20, LS174T, NCI-H929, HCT116, SW620, SK-CO-1, SW480, DLD1, HT-29, SW900, SW1417, HuH7, H2009, PANC-1, SW48, Duadi, H358, HCT15, 22Rv1, Hela, RKO, Raji, Jurkat, NCI-H716, MDA-MB-231, NCI-H157 and THP1 cell lines cultured in each medium were treated during the logarithmic growth phase, and the cells were collected and prepared into a uniform cell suspension of known concentration, and then added to the 96-well cell culture plate to make each well contain 1000 cells. Put it into a 5% CO2 incubator and incubate at 37° C. for 20-24 h. The next day, the fully dissolved 3-fold gradient diluted compound was added to each cell culture well, so that the final maximum concentration in the cell culture well was 20 μM, and the culture was continued for 72 hours. In this test, Promega's cell viability detection test is used for detection. The more the cells proliferate, the stronger the final signal intensity will be. The detection instrument is SpectraMax, full wavelength mode. The wells with only DMSO added were used as positive control wells, and the wells without cells inoculated were used as negative control wells. The IC50 value of each compound for different cell proliferation inhibition was calculated to evaluate the inhibitory effect of the compound on different tumor cells.

[3] = test system: RKO; experiment: as above; details: Homo sapiens, RKO cells, read-out: Anti-proliferation IC50
Description: as §3, §4

[4] = test system: LS174T; experiment: as above; details: Homo sapiens, LS174T cells, read-out: Anti-proliferation IC50
Description: as §3, §4

[5] = test system: MDA-MB-231; experiment: as above; details: Homo sapiens, MDA-MB-231 cells, read-out: Anti-proliferation IC50
Description: as §3, §4

[6] = test system: PLC/PRF/5; experiment: as above; details: Homo sapiens, PLC/PRF/5 cells, read-out: Anti-proliferation IC50
Description: as §3, §4

[7] = test system: non-phosphorylated β-catenin; experiment: Western blot of non-phosphorylated β-catenin content in Colo205 cells; details: for Effect on content of non-phosphorylated β-catenin (active β-catenin), in words: FIG. 1; for IC50: overnight, Western blot, read-out: Non-phosphorylated β-catenin content inhibition IC50
Source text: The Wnt signaling pathway is a key pathway for abnormal tumor growth. In colon cancer, liver cancer, pancreatic cancer and other cancers, a large number of patients have abnormal activation of the Wnt signaling pathway. The Wnt signaling pathway depends on the fine balance of β-catenin protein level. When Wnt signaling is not activated, β-catenin is phosphorylated by CK1 and APC/Axin/GSK-3β complexes, and the β-catenin protein is kept at a low level through ubiquitin-dependent proteasome degradation. When the Wnt signaling pathway is activated, β-catenin maintains a stable state of non-phosphorylation, and non-phosphorylated β-catenin can be transported into the nucleus through Rac1 and other factors, and plays a transcriptional regulatory role by binding to LEF/TCF transcription factors in the nucleus, activates downstream target genes such as C-myc and Cyclin D1, and promotes cell proliferation. Therefore, abnormal activation of the Wnt signaling pathway in tumor cells will lead to abnormal proliferation of tumors. In order to explore the inhibitory mechanism of the compound on the proliferation of tumor cell lines, the compound AN10250399, AN10250421 or AN10250484 was used to treat sensitive cells Colo205, DU4475 and HepG2, and Western blot was used to detect the content of non-phosphorylated β-catenin in the Wnt pathway to clarify the effect of the compound on content of the non-phosphorylated β-catenin.
Add 500 μL of the compound with the highest concentration shown in FIG. 1 to each well of the 6-well cell culture plate, and make a 10-fold gradient dilution of the compound concentration. Then 500 μL of 10^6 Colo205, DU4475 and HepG2 or 500 μL of medium were inoculated into each well, and corresponding solvent treatment was performed simultaneously as negative control wells. The cells were placed in a 5% CO2 cell incubator, cultured overnight at 37° C. The culture medium was removed, washed once with PBS, 200 μL of RIPA buffer containing protease inhibitors was added to each well, and the protein lysate was collected after lysing on ice for 20 min. Add an appropriate amount of concentrated SDS-PAGE protein loading buffer to the collected protein lysate samples, and heat at 100° C. or in a boiling water bath for 3-5 minutes to fully denature the protein. Load the protein sample directly to the SDS-PAGE gel for electrophoresis separation, transfer the protein on the SDS-PAGE gel to the PVDF membrane; after the transfer was completed, the protein was blocked by Western blocking solution, then Rabbit anti-β-catenin non-phospho S37/After T41 (ab278503) was added and the protein was incubated at room temperature for one hour and washed, the content of non-phosphorylated β-catenin was detected by incubation with Goat Anti-Rabbit IgG H&L (HRP) (ab6721). As a control, glyceraldehyde-3-phosphate dehydrogenase (GAPDH) was used as an internal standard protein

[8] = test system: non-phosphorylated β-catenin; experiment: Western blot of non-phosphorylated β-catenin content in DU4475 cells; details: overnight, read-out: Non-phosphorylated β-catenin content inhibition IC50
Source text: as §1, §2

Row | SMILES | IC50 [1] [nM] | IC50 [2] [nM] | IC50 [3] [nM] | IC50 [4] [nM] | IC50 [5] [nM] | IC50 [6] [nM] | Effect on content of non-phosphorylated β-catenin (active β-catenin), in words [7] | IC50 [7] [nM] | IC50 [8] [nM]
1 | [2H]C([2H])([2H])N1c2nc(NCc3ccc(Oc4cnc(C(F)(F)F)nc4)nc3)nc3c2N(CCC3)C(=O)[C@]1(C)CO [AN10250399] | 4 | 100 | > 10000 | 102 | > 10000 | 62.6 | decrease the content of non-phosphorylated β-catenin | 22 | 157
2 | Cc1nc(C(F)(F)F)ncc1Oc1ccc(CNc2nc(C)c3c(n2)N(C)[C@@H](C)C(=O)N3)cn1 [AN10250484] | 5.9 | 284 | > 10000 | 26.3 | > 10000 | 18 | decrease the content of non-phosphorylated β-catenin | 10 | 29
